Patent US6355799B1, “Substituted benzene compounds, process for their preparation, and herbicidal and defoliant compositions containing them” (ISK Americas Incorporated, priority 1997, dated 2002)

Tests used:
Format in all cases: in vivo
[1] = system: redroot pigweed (Amaranthus retroflexus, AMARE); experiment: Pre-emerge test, greenhouse herbicide activity screening; settings: phytotoxicity rating 0-100, 14 days after application
Procedure, shortened: (§1)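 Visual ratings on a 0-100 scale (0 no damage, 100 all plants dead) were taken at 14 days after treatment. Rates of 15-1000 g ai/ha in acetone, 187 l/ha, were sprayed onto soil one day after planting (pre-emerge) or onto 2-3 leaf plants with 0.25% v/v surfactant (post-emerge).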

[2] = system: barnyardgrass (Echinochloa crus-galli, ECHCG); experiment: as above; settings: phytotoxicity rating 0-100, 14 days after application
Procedure, shortened: (§2)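 Compounds in acetone were track-sprayed at 15-1000 g ai/ha (187 l/ha) on sandy loam pots: pre-emerge one day after seeding, post-emerge at 2-3 leaf stage with 0.25% v/v non-ionic surfactant. Phytotoxicity was rated 14 days later on a 0 (no damage) to 100 (complete death) scale.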

[3] = system: common ragweed (Ambrosia artemisizfolia L., AMBEL); experiment: as above; settings: phytotoxicity rating 0-100, 14 days after application
Procedure, shortened: as §2

[4] = system: green foxtail (Setaria viridis, SETVI); experiment: as above; settings: phytotoxicity rating 0-100, 14 days after application
Procedure, shortened: as §2

[5] = system: ivyleaf morningglory (Ipomoea hederacea, IPOHE); experiment: as above; settings: phytotoxicity rating 0-100, 14 days after application
Procedure, shortened: as §2

[6] = system: johnsongrass (Sorghum halepense, SORHA); experiment: as above; settings: phytotoxicity rating 0-100, 14 days after application
Procedure, shortened: as §2

[7] = system: lambsquarters (Chenopodium album, CHEAL); experiment: as above; settings: phytotoxicity rating 0-100, 14 days after application
Procedure, shortened: as §2

[8] = system: large crabgrass (Digitaria sanguinalis, DIGSA); experiment: as above; settings: phytotoxicity rating 0-100, 14 days after application
Procedure, shortened: as §2

[9] = system: sicklepod (Cassia obtusifolia, CASOB); experiment: as above; settings: phytotoxicity rating 0-100, 14 days after application
Procedure, shortened: as §2

[10] = system: velvetleaf (Abutilon theophrasti, ABUTH); experiment: as above; settings: phytotoxicity rating 0-100, 14 days after application
Procedure, shortened: as §2

[11] = system: field corn (Zea mays L., var. Dekalb 535, CORN); experiment: Pre-emerge test, crop safety; settings: crop damage rating 0-100, 14 days after application
Procedure, shortened: as §1

[12] = system: upland rice (Oryza sp., var. Tebonnet, RICE); experiment: Pre-emerge test, crop safety; settings: crop damage rating 0-100, 14 days after application
Procedure, shortened: as §1

[13] = system: barnyardgrass (Echinochloa crus-galli, ECHCG); experiment: Post-emerge test, greenhouse herbicide activity screening; settings: post-emerge, 14 days after application, rating scale 0-100
Procedure, shortened: (§3)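 Each test used a mechanized track sprayer delivering 187 l/ha of acetone solution at 15–1000 g ai/ha. Post-emerge foliage at 2–3 leaves was treated with added 0.25% v/v non-ionic surfactant and bottom-watered only. Injury was assessed on day 14, where 100 means total kill.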

[14] = system: common ragweed (Ambrosia artemisizfolia L., AMBEL); experiment: as above; settings: post-emerge, 14 days after application, rating scale 0-100
Procedure, shortened: as §3

[15] = system: green foxtail (Setaria viridis, SETVI); experiment: as above; settings: post-emerge, 14 days after application, rating scale 0-100
Procedure, shortened: as §3

[16] = system: ivyleaf morningglory (Ipomoea hederacea, IPOHE); experiment: as above; settings: post-emerge, 14 days after application, rating scale 0-100
Procedure, shortened: as §3

[17] = system: johnsongrass (Sorghum halepense, SORHA); experiment: as above; settings: post-emerge, 14 days after application, rating scale 0-100
Procedure, shortened: as §3

[18] = system: lambsquarters (Chenopodium album, CHEAL); experiment: as above; settings: post-emerge, 14 days after application, rating scale 0-100
Procedure, shortened: as §3

[19] = system: large crabgrass (Digitaria sanguinalis, DIGSA); experiment: as above; settings: post-emerge, 14 days after application, rating scale 0-100
Procedure, shortened: as §3

[20] = system: redroot pigweed (Amaranthus retroflexus, AMARE); experiment: as above; settings: post-emerge, 14 days after application
Procedure, shortened: as §3

[21] = system: sicklepod (Cassia obtusifolia, CASOB); experiment: as above; settings: post-emerge, 14 days after application, rating scale 0-100
Procedure, shortened: as §3

[22] = system: velvetleaf (Abutilon theophrasti, ABUTH); experiment: as above; settings: post-emerge, 14 days after application, rating scale 0-100
Procedure, shortened: as §3

[23] = system: field corn (Zea mays L., var. Dekalb 535, CORN); experiment: Post-emerge test, crop safety; settings: post-emerge, 14 days after application, rating scale 0-100
Procedure, shortened: as §2

[24] = system: upland rice (Oryza sp., var. Tebonnet, RICE); experiment: Post-emerge test, crop safety; settings: post-emerge, 63 g ai/ha, 14 days after application, rating scale 0-100
Procedure, shortened: as §2

In the case of “2-(4-chloro-3-ethoxy-6-fluoro-2-naphthoylamidophenyl)-1-methyl-6-trifluoromethyl-2,4(1H, 3H)-pyrimidinedione [Compound 2-196]”, the “Pre-emerge Herbicidal Activity AMARE” value ([1]; 63 g ai/ha) was 100, the “Pre-emerge Herbicidal Activity AMARE” value ([1]; 250 g ai/ha) was 100 and the “Pre-emerge Herbicidal Activity ECHCG” value ([2]; 63 g ai/ha) was 40. The “Pre-emerge Herbicidal Activity ECHCG” value ([2]; 250 g ai/ha) was 85, the “Pre-emerge Herbicidal Activity AMBEL” value ([3]; 63 g ai/ha) was 30 and the “Pre-emerge Herbicidal Activity AMBEL” value ([3]; 250 g ai/ha) was 90. The “Pre-emerge Herbicidal Activity SETVI” value ([4]; 63 g ai/ha) was 90, the “Pre-emerge Herbicidal Activity SETVI” value ([4]; 250 g ai/ha) was 100 and the “Pre-emerge Herbicidal Activity IPOHE” value ([5]; 63 g ai/ha) was 20. The “Pre-emerge Herbicidal Activity IPOHE” value ([5]; 250 g ai/ha) was 70, the “Pre-emerge Herbicidal Activity SORHA” value ([6]; 63 g ai/ha) was 10 and the “Pre-emerge Herbicidal Activity SORHA” value ([6]; 250 g ai/ha) was 20. The “Pre-emerge Herbicidal Activity CHEAL” value ([7]; 63 g ai/ha) was 100, the “Pre-emerge Herbicidal Activity CHEAL” value ([7]; 250 g ai/ha) was 100 and the “Pre-emerge Herbicidal Activity DIGSA” value ([8]; 63 g ai/ha) was 90. For the same substance, the “Pre-emerge Herbicidal Activity DIGSA” value ([8]; 250 g ai/ha) was 100, the “Pre-emerge Herbicidal Activity CASOB” value ([9]; 63 g ai/ha) was 0 and the “Pre-emerge Herbicidal Activity CASOB” value ([9]; 250 g ai/ha) was 60. For the same substance, the “Pre-emerge Herbicidal Activity ABUTH” value ([10]; 63 g ai/ha) was 100, the “Pre-emerge Herbicidal Activity ABUTH” value ([10]; 250 g ai/ha) was 100 and the “Pre-emerge Herbicidal Activity CORN” value ([11]; 63 g ai/ha) was 0. For the same substance, the “Pre-emerge Herbicidal Activity CORN” value ([11]; 250 g ai/ha) was 0, the “Pre-emerge Herbicidal Activity RICE” value ([12]; 63 g ai/ha) was 20 and the “Pre-emerge Herbicidal Activity RICE” value ([12]; 250 g ai/ha) was 50. For the same substance, the “phytotoxicity rating ECHCG” value ([13]; 63 g ai/ha) was 10, the “phytotoxicity rating ECHCG” value ([13]; 250 g ai/ha) was 10 and the “phytotoxicity rating AMBEL” value ([14]; 63 g ai/ha) was 100. The “phytotoxicity rating AMBEL” value ([14]; 250 g ai/ha) was 90, the “phytotoxicity rating SETVI” value ([15]; 63 g ai/ha) was 30 and the “phytotoxicity rating SETVI” value ([15]; 250 g ai/ha) was 20. For the same substance, the “phytotoxicity rating IPOHE” value ([16]; 63 g ai/ha) was 90, the “phytotoxicity rating IPOHE” value ([16]; 250 g ai/ha) was 100 and the “phytotoxicity rating SORHA” value ([17]; 63 g ai/ha) was 10. The “phytotoxicity rating SORHA” value ([17]; 250 g ai/ha) was 10, the “phytotoxicity rating CHEAL” value ([18]; 63 g ai/ha) was 100 and the “phytotoxicity rating CHEAL” value ([18]; 250 g ai/ha) was 100. For the same substance, the “phytotoxicity rating DIGSA” value ([19]; 63 g ai/ha) was 10, the “phytotoxicity rating DIGSA” value ([19]; 250 g ai/ha) was 20 and the “phytotoxicity rating AMARE” value ([20]; 63 g ai/ha, rating scale 0-100 (0 no damage, 100 complete death)) was 100. For the same substance, the “phytotoxicity rating AMARE” value ([20]; 250 g ai/ha, rating scale 0-100) was 100, the “phytotoxicity rating CASOB” value ([21]; 63 g ai/ha) was 100 and the “phytotoxicity rating CASOB” value ([21]; 250 g ai/ha) was 100. For the same substance, the “phytotoxicity rating ABUTH” value ([22]; 63 g ai/ha) was 100, the “phytotoxicity rating ABUTH” value ([22]; 250 g ai/ha) was 100 and the “phytotoxicity rating CORN (crop damage)” value ([23]; 63 g ai/ha) was 10. For the same substance, the “phytotoxicity rating CORN (crop damage)” value ([23]; 250 g ai/ha) was 15 and the “phytotoxicity rating RICE (crop damage)” value [24] was 30.
